Key:
rat osteoblasts = assay: Osteoblast proliferation, [3H]-thymidine incorporation; format: cell-based; conditions: versus vehicle control; for proliferation of rat osteoblasts, as measured by thymidine incorporation (FIG. 1): primary fetal rat calvarial osteoblasts, peptide 1×10^−9 M, 20-24 hours; for proliferation of rat osteoblasts, as measured by thymidine incorporation, parallel comparison (FIG. 4): various concentrations, compared in parallel
Procedure: Osteoblasts were isolated from 20 day fetal rat calvariae as previously described (Cornish et al., American Journal of Physiology—Endocrinology & Metabolism 277: E779-E783, 1999). Briefly, calvariae were dissected aseptically and the frontal and parietal bones are stripped of their periosteum. Only the central portions of the bones, free from suture tissue, were collected. The calvariae were treated twice with phosphate buffered saline (PBS) containing 3 mM EDTA (pH 7.4) for 15 minutes at 37° C. in a shaking water bath. Calvariae were washed once in PBS and treated twice with 3 ml of collagenase (1 mg/ml) for 7 minutes at 37° C. After discarding supernatants from the first two collagenase digestions, calvariae were treated twice with 3 ml collagenase (2 mg/ml) for 30 minutes at 37° C. The supernatants from these third and fourth collagenase digestions were collected, pooled and centrifuged. The pelleted cells were washed in Dulbecco's modified Eagle's medium (DME) with 10% fetal calf serum (FCS), resuspended in DME/10% FCS, and placed in 75 cm^2 flasks. Cells were incubated under 5% CO2 and 95% air at 37° C. Cells were grown to confluence (approximately 5-6 days) and then subcultured.
To set up subcultures, cells were trypsinized in trypsin-EDTA (0.05%/0.53 mM), rinsed in minimal essential medium (MEM) with 5% FCS, resuspended in fresh medium, and seeded at 5×10^4 cells/ml in 24-well plates (0.5 ml cell suspension per well, i.e., 1.4×10^4 cells/cm^2).
To evaluate the proliferative responses of osteoblast cultures in the presence of preptin and various fragments of preptin, subconfluent cell cultures were growth arrested by incubation in MEM/0.1% bovine serum albumin 24 hours prior to addition of test compounds. Cells were cultured in the presence of full-length preptin (preptin 1-34), preptin 1-19, preptin 20-34, or in the absence of preptin compounds (control). Preptin compounds were added to a final concentration of 1×10^−9 M. A pulse of [^3H]-thymidine (1 […]) was added to each sample two hours prior to the end of each experimental incubation. The incubations were terminated 20-24 hours after addition of preptin compounds by washing the cells in MEM containing non-radioactive thymidine, followed by the addition of 10% trichloroacetic acid. The precipitate was washed twice either ethanol:ether (3:1) and the wells were desiccated at room temperature. The residue in each well was redissolved in 2 M KOH at 55° C. for 30 minutes, neutralized with 1 M HCl, and an aliquot was removed to quantitate incorporation of radioactivity in the samples. The results are depicted in FIG. 1. […] The results are representative of at least four independent assays.

[1] = system: isolated, perfused rat pancreas; conditions: infusion into isolated, Buchanan et al. 2001; cited from earlier work

Substance	proliferation of rat osteoblasts, as measured by thymidine incorporation (FIG. 1) (rat osteoblasts)	insulin secretion [1]	proliferation of rat osteoblasts, as measured by thymidine incorporation, parallel comparison (FIG. 4) (rat osteoblasts)
Asp Val Ser Thr R1 R2 R3 Val Leu Pro Asp R4 Phe Pro Arg Tyr Pro Val Gly Lys Phe Phe R5 R6 Asp Thr Trp R7 Gln Ser R8 Rg Arg Leu [preptin 1-34, reference compound]	stimulated	significant increase in the second phase of secretion	
Asp Val Ser Thr R1 R2 R3 Val Leu Pro Asp R4 Phe Pro Arg Tyr Pro Val Gly [preptin 1-19]	enhances osteoblast proliferation in vitro, to levels comparable to those stimulated by full-length preptin		significant increase in proliferation at 1×10^−9M
preptin 20-34: a C-terminal fragment of preptin (KFFQYDTWKQSTQRL; Preptin; UniProt P01344 112-126, looked up, fragment) [reference compound]	No enhancement of osteoblast proliferation was observed		did not stimulate a significant increase in proliferation at any of the concentrations tested

From patent publication US20070173456A1, “PREPTIN FRAGMENTS AND METHODS OF USE” (Auckland UniServices Limited, priority 2005, published 2007)
